According to patent US9783859B2, “Method of screening and quantifying various enzymatic activities using artificial genetic circuits” (KOREA RESEARCH INSTITUTE OF BIOSCIENCE AND BIOTECHNOLOGY, priority 2009, dated 2017):
Where two headings read alike, the source gives them in different places.

Key:
[1] = system: Pseudomonas sp. methyl parathion hydrolase (MPH); assay: sensing of methyl parathion hydrolase activity with pGESS-EGFP (III); assay type: cell-based; settings: 0.1 mM substrate, GFP emission at 510 nm
Method: The cells were lysed, and the supernatant was analyzed with a fluorescence spectrometer (Varian, Australia), thereby examining whether the emission wavelength of GFP was detected at 510 nm.

[2] = system: genetic circuit pGESS-Km(II); settings: phenol 1-1000 μM
Method: (§1) Next, the genetic circuits (pGESS-Cm(II), pGESS-Tc(II), and pGESS-Km(II)) comprising the antibiotic resistance gene as the reporter were used to perform quantitative antibiotic resistance analysis. A single colony of E. coli JM109(DE3) containing each genetic circuit comprising chloramphenicol, tetracycline or kanamycin resistance gene as a reporter was inoculated into liquid medium containing 50 μg/ml of ampicillin and was cultured with shaking overnight at 37° C. The pre-culture was 10^6-fold diluted, and 100 μl of the dilution was plated on each of selective media and cultured overnight at 37° C. for 3 days. The number of colonies produced on the solid medium was counted, thereby performing the resistance test. 50 μg/ml of ampicillin and various concentrations (0, 10, 20 and 30 μg/ml) of each of selective antibiotics (chloramphenicol, tetracycline and kanamycin resistance) were added to each selective medium. Also, a transcriptional activator, that is, phenol, was added at a concentration of 1-1000 μM.

[3] = system: genetic circuit pGESS-Tc(II); settings: phenol 1-1000 μM
Method: as §1

[4] = system: genetic circuit pGESS-Cm(II)
Method: as §1

[5] = system: genetic circuit pGESS-EGFP (III), mutant dmpR (E135K); assay type: cell-based, E. coli
Method: The colony introduced with the pGESS-EGFP (II) or pGESS-EGFP (III) genetic circuit was inoculated into LB medium and was cultured with shaking at 37° C. Next day, the culture was inoculated into LB medium to a concentration of 1% (v/v) and was cultured with shaking at 37° C. When the cell growth (OD600/ml) reached about 2.5, the cultured cells were recovered and subjected to activation of the genetic circuit. For activation of the genetic circuit, the recovered bacterial cells were washed once with M9 medium, after which they were suspended in M9 (acetate) media containing various concentrations of phenol and were cultured with shaking. Each medium was supplemented with 50 μg/ml of ampicillin as a selection marker. The bacterial cell growth was predicted by measuring absorbance (OD600) using a UV/VIS spectrometer (Ultrospec 3000, Pharmacia Biotech, Sweden), and the fluorescence intensity was measured using a fluorescence plate reader (Multi-label reader, PerkinElmer, USA).
Next, the measurement of sensitivities to 2-nitrophenol and 4-nitrophenol was performed. The measurement was performed in the same manner as above, and various concentrations of 2-nitrophenol and 4-nitrophenol in addition to phenol were added and allowed to react.

[6] = system: artificial genetic circuit pGESS-EGFP (I) (dmpR); assay type: cell-based, E. coli DH5α; settings: 0.1-1000 μM tested, overnight at 30° C., LB medium
Method: The signals of the artificial genetic circuit for phenolic compounds were quantitatively analyzed. Specifically, a single colony of E. coli DH5α containing pGESS-EGFP (I) was inoculated into LB liquid medium containing 50 μg/ml of ampicillin and was cultured with shaking overnight at 37° C. The culture was inoculated into LB medium containing 50 μg/ml of ampicillin to a concentration of 1% (v/v), and 0.1-1000 μM of each of phenol, o-chlorophenol, m-chlorophenol, o-nitrophenol, catechol and resorcinol was added thereto and cultured with shaking overnight at 30° C. The cells were lysed, and the supernatant was analyzed by a fluorescence spectrometer (Varian, Australia), thereby measuring the fluorescence of GFP at 510 nm.

[7] = system: phenol-sensing artificial genetic circuit pGESS-EGFP(I) (dmpR); settings: solid medium, 30° C. 36 hours, fluorescence microscope
Method: In order to quantitatively analyze the function of the artificial genetic circuit (constructed in Example 1) to sense phenol, a single colony of recombinant E. coli BL21 containing pGESS-EGFP(I) was inoculated into LB liquid medium containing 50 μg/ml of ampicillin and was cultured with shaking overnight at 37° C.

[8] = system: phenol-sensing artificial genetic circuit pGESS-EGFP(I) (dmpR)
Method: The dependence of sensitivity of the artificial genetic circuit on the concentration of the inducer phenol was confirmed using a fluorescence spectrometer. For this purpose, a single colony of recombinant E. coli containing pGESS-EGFP(I) was inoculated into LB liquid medium supplemented with 50 μg/ml of ampicillin and was cultured with shaking overnight at 37° C. The above pre-culture was inoculated into LB liquid medium containing 50 μg/ml of ampicillin and various concentrations (0.1-1000 μM) of phenol to a concentration of 1% (v/v) and was cultured with shaking at 30° C. for 20 hours. To analyze the intensity of fluorescence, the cells were disrupted, and the intensity of fluorescence in the supernatant was analyzed using a fluorescence spectrometer.

[9] = system: genetic circuit pGESS-EGFP (II)
Method: In the present invention, in order to increase the ability of the genetic circuit to sense phenolic compounds, the reaction of the genetic circuit was performed using the optimal medium and carbon source selected in Example 5, and the cell growth step and the step of activating (analyzing) the genetic circuit were separated from each other, thereby attempting the optimization of the sense system. Specifically, the bacterial cells were made healthy using LB medium during growth, and the cells were recovered and the activity of the genetic circuit therein was analyzed in the M9 medium containing acetate as a carbon source.
Specifically, a colony introduced with the genetic circuit was inoculated into LB medium and was cultured with shaking overnight at 37° C., and next day, the culture was inoculated into LB medium at a concentration of 1% (v/v) and was cultured with shaking at 37° C. When the cell growth (OD600/ml) reached about 2.5, the cultured cells were recovered and subjected to activation of the genetic circuit. For activation of the genetic circuit, the recovered bacterial cells were washed once with M9 medium, after they were suspended in M9 (acetate) media containing various concentrations of phenols and were cultured with shaking at 30° C. for 16 hours. Each medium was supplemented with 50 μg/ml of ampicillin as a selective marker. The intensity of fluorescence in cells induced by each concentration of phenol was measured using FACSAria system (Becton Dickinson, US). As a detector, an FSC, SSC, FL1-H (excitation=488 nm, emission=530/30 nm) detector was set, and data obtained by 50,000 sample cells were analyzed using FACSDiVa (Becton Dickinson, USA) (see FIG. 19 C).

[10] = molecular target: T1, C. freundii tyrosine-phenol lyase (TPL) (Citrobacter freundii, UniProt P31013); assay: sensing of tyrosine-phenol lyase activity with pGESS-EGFP (I); assay type: cell-based; settings: 1 mM tyrosine, 10 μM PLP, 30° C. 20 hours
T1 construct: expressed in transfected cells; host or cells: E. coli DH5α containing pGESS-EGFP (I), plasmid pEC-TPL
Text: The GESS genetic circuit of the present invention can also be used to sense a reaction (phenol-lyase) of liberating phenol from substrates (Ph-C—(R)) comprising carbon coupled to phenol. In the present invention, whether the GESS genetic circuit senses the activity of TPL (enzyme degrading tyrosine into phenol, pyruvic acid and ammonia) was examined in order to verify the effectiveness of TPL. Specifically, C. freundii TPL gene was cloned into pEC11a (obtained by replacing the on of pET11a(+) with ACYC ori) to prepare pEC-TPL which was then introduced into E. coli DH5α containing pGESS-EGFP (I).

[11] = enzymatic properties of novel alkaline phosphatase (pNPP hydrolysis, absorbance at 405 nm); assay type: biochemical; settings: 15 minutes, at 80° C. or below
Method: The optimum pH and temperature, thermal stability and substrate specificity of the selected alkaline phosphatase and the effect thereof on metal ions were examined. An enzymatic reaction was performed in the following manner. The enzymatic reaction was performed using a mixture of 50 mM diethanolamine, DEA (pH 9.0) buffer, 0.5 mM para-nitrophenylphosphate (pNPP) and the enzyme at 37° C. for 5 minutes. The same amount of 1M NaOH was added to stop the enzymatic reaction, and the amount of nitrophenol produced by the enzymatic reaction was measured. the measurement was performed by measuring the absorbance at 405 nm using a fluorescence plate reader (Victor5, Perkin-Elmer, USA). 1 unit was defined as the amount of enzyme that can produce 1 μmol of para-nitrophenol per minute at 37° C.
In order to examine the optimum pH of the novel alkaline phosphatase, the activities thereof at a pH of 7.0 to 10.5 were compared. At a pH of 7.0 to 8.5, 50 mM Tris-HCl buffer was used, and at a pH of 7.5 to 10.5, 50 mM DEA buffer was used.
In addition, the activities of the enzyme at various temperatures were compared. […] (see FIG. 25B). In addition, in order to examine the thermal inactivation of the enzyme, the enzyme was allowed to stand at various temperatures for 15 minutes, and then the remaining enzymatic activity was measured. […]

T1 sequence (P31013 whole entry): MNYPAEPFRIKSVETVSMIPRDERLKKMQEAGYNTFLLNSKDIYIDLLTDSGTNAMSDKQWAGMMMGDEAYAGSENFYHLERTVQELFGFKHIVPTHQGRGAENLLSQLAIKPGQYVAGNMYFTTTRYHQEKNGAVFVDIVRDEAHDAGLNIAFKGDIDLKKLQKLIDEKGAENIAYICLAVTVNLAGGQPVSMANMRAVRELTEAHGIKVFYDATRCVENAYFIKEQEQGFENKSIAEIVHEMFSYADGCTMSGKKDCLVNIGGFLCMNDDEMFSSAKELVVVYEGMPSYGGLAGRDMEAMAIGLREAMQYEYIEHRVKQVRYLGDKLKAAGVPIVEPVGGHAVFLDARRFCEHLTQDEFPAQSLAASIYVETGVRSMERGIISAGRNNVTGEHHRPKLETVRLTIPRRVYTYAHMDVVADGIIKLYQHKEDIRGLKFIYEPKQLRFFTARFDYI

## COP(=S)(OC)Oc1ccc([N+](=O)[O-])cc1 [methyl parathion]
[1]
  fluorescence in the presence of MPH: strong fluorescence was observed

## Oc1ccccc1 [phenol]
[2]
  phenol-dependent kanamycin resistance (colony formation): the formation of colonies was not sensed
[3]
  phenol-dependent tetracycline resistance (colony formation): quantitative results similar to those in the case of chloramphenicol
[4]; phenol concentration 100 μM
  resistance to chloramphenicol: 40 µg/mL
[4]; phenol concentration 1 mM
  resistance to chloramphenicol: 50 µg/mL
[4]; phenol concentration of 10 μM
  resistance to chloramphenicol: ≤ 20 µg/mL
[5]; mutant dmpR vs wild dmpR (pGESS-EGFP (II))
  sensitivity relative to wild dmpR: about 10 times
[5]; pGESS-EGFP (III)
  relative sensitivity among phenol, 4-nitrophenol and 2-nitrophenol: highest
[5]; pGESS-EGFP (III), mutant dmpR, M9 (acetate)
  concentration range which could be quantitatively sensed: 0.1 to 10 µM
[6]
  concentration from which fluorescence started to be sensed: 1 µM
[7]
  phenol concentration at which colony fluorescence was observed: more than 1 μM
[8]; LB liquid medium, 30° C. 20 hours, fluorescence spectrometer
  phenol concentration at which a clear fluorescent signal was observed: ≥ 10 µM
[8]; pGESS-EGFP(I)
  phenol concentration range in which the genetic circuit is quantitatively activated: 1 to 1000 µM
[9]; 2-step activity analysis
  increase of reaction value: about 5 times
  sensitivity relative to the previous sensitivity: about 10 times
[9]; 2-step activity analysis, M9 (acetate)
  concentration range of phenol which could be quantitatively analyzed: 1 to 10 µM
[9]; M9 (acetate), 30° C. 16 hours
  phenol concentration that could be sensed by 2-step activity analysis: at least 1 μM

## N[C@@H](Cc1ccc(O)cc1)C(=O)O [tyrosine]
[10]
  intensity of fluorescence in the cell lysis due to TPL activity: significantly increased

## alkaline phosphatase (BAP) from E. coli: alkaline phosphatase (BAP) from E. coli
[11]
  thermal inactivation: not inactivated
